Target: T1, His6-CdbS (Myxococcus xanthus, UniProt Q1D4C1)
T1 construct: gene MXAN_4328; full-length stand-alone PilZ protein (PilZ domain residues 7-82), N-terminal His6 tag (pET28a, pMS007), made in E. coli Arctic Express (DE3) RP
Assay: bio-layer interferometry, streptavidin sensor, equilibrium one-site fit
Assay type: binding
Settings: labelled compound (biotinylated c-di-GMP immobilised on sensor); 50 mM Tris-HCl pH 7, 150 mM NaCl, 10% glycerol, 0.02% Tween-20

T1 sequence (Q1D4C1 entry or part of it): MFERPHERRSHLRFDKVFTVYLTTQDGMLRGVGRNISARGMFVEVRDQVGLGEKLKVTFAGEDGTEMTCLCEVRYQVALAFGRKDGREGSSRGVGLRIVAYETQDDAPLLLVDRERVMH

Structure (SMILES): Nc1nc2c(ncn2[C@@H]2O[C@@H]3COP(=O)(O)O[C@H]4[C@@H](O)[C@H](n5cnc6c(=O)[nH]c(N)nc65)O[C@@H]4COP(=O)(O)O[C@H]3[C@H]2O)c(=O)[nH]1 [c-di-GMP]
- Kd: His6-CdbS^R9A did not detectably bind c-di-GMP

— PMC10313047, “During heat stress in Myxococcus xanthus, the CdbS PilZ domain protein, in concert with two PilZ-DnaK chaperones, perturbs chromosome organization and accelerates cell death” (PLOS Genetics, 2023)
